Measurements reported in the CheMixHub viscosity set.

Assay: xn = mol fraction of the nth substance listed

CCCCCCCCn1cc[n+](C)c1.[Cl-] + CN1CCCC1=O
100 kPa
Settings	viscosity [mPa·s]
293.15 K, x1 = 0.2805	26.15
308.15 K, x1 = 0.3657	33.55
308.15 K, x1 = 0.4679	67.15
318.15 K, x1 = 0.4679	43.25

CCOC(C)=O + CN1CCCC1=O
viscosity [mPa·s], 101 kPa
Settings	x2 = 0.1022	x2 = 0.2038	x2 = 0.305	x2 = 0.4057	x2 = 0.506	x2 = 0.6057	x2 = 0.705	x2 = 0.8038	x2 = 0.9021
303.15 K	0.556	0.725	0.879	1.023	1.154	1.271	1.369	1.449	1.511
308.15 K	0.523	0.669	0.804	0.928	1.042	1.147	1.235	1.307	1.365
313.15 K	0.492	0.628	0.753	0.869	0.975	1.07	1.153	1.221	1.274
318.15 K	0.462	0.582	0.695	0.798	0.893	0.976	1.051	1.114	1.165

CCOc1ccccc1 + CN1CCCC1=O
viscosity [mPa·s], 101.33 kPa
Settings	x1 = 0.041	x1 = 0.122	x1 = 0.201	x1 = 0.273	x1 = 0.37	x1 = 0.504	x1 = 0.628	x1 = 0.709	x1 = 0.822
298 K	1.667	1.648	1.622	1.594	1.551	1.481	1.408	1.36	1.285
303 K	1.541	1.518	1.49	1.461	1.418	1.353	1.286	1.242	1.175
308 K	1.432	1.406	1.377	1.348	1.307	1.244	1.183	1.141	1.08

OCC(O)CO + CN1CCCC1=O
101 kPa
Settings	viscosity [mPa·s]
298 K, x2 = 0.078	418.4
298 K, x2 = 0.16	269.4
298 K, x2 = 0.338	72.84
298 K, x2 = 0.433	38.94
298 K, x2 = 0.534	20.42
298 K, x2 = 0.641	11.12
298 K, x2 = 0.754	4.23
298 K, x2 = 0.873	2.44
303 K, x2 = 0.078	289.9
303 K, x2 = 0.16	160.5
303 K, x2 = 0.336	55.93
303 K, x2 = 0.432	30.16
303 K, x2 = 0.533	17.83
303 K, x2 = 0.64	9.48
303 K, x2 = 0.753	3.75
303 K, x2 = 0.872	2.26
308 K, x2 = 0.077	211.3
308 K, x2 = 0.159	118.3
308 K, x2 = 0.335	43.4
308 K, x2 = 0.43	25.79
308 K, x2 = 0.531	15.16
308 K, x2 = 0.638	7.7
308 K, x2 = 0.751	3.27
308 K, x2 = 0.872	2.02
313 K, x2 = 0.077	143.4
313 K, x2 = 0.158	87.14
313 K, x2 = 0.334	35.17
313 K, x2 = 0.43	20.73
313 K, x2 = 0.53	10.45
313 K, x2 = 0.637	6.13
313 K, x2 = 0.751	2.91
313 K, x2 = 0.871	1.88
318 K, x2 = 0.077	106.1
318 K, x2 = 0.158	54.08
318 K, x2 = 0.334	25
318 K, x2 = 0.429	16.1
318 K, x2 = 0.53	9.03
318 K, x2 = 0.637	5.17
318 K, x2 = 0.75	2.68
318 K, x2 = 0.871	1.72
323 K, x2 = 0.077	83.45
323 K, x2 = 0.158	50.16
323 K, x2 = 0.334	21.33
323 K, x2 = 0.429	13.43
323 K, x2 = 0.53	7.11
323 K, x2 = 0.637	4.64
323 K, x2 = 0.75	2.46
323 K, x2 = 0.871	1.6
